From publication PMC2821678 (Chemico-biological interactions, 2009)
Read-outs that look alike come from different tables or passages of the source. Blank lines part the entries; values can stand above or below the molecule they belong to.

How the values were obtained:
[1] = tested on: SK-MEL-28 melanoma cells; experiment: MTT cell viability, SK-MEL-28; format: cell-based, human
[2] = tested on: amelanotic C32 melanoma cells; experiment: Reactive oxygen species; format: cell-based, human
[3] = tested on: Mushroom tyrosinase; experiment: Tyrosinase mediated GSH depletion assay; format: biochemical; conditions: for % GSH depletion (2 h) Tyrosinase/O2: 2 h incubation
[4] = tested on: melanocytic SK-MEL-28 melanoma cells; experiment: Intracellular GSH measurement, SK-MEL-28; format: cell-based, human
[5] = tested on: Mushroom tyrosinase; format: biochemical; conditions: pH 7.4; for Tyrosinase Kinetics AA (rate of AA oxidation): nM of AA per compound (μM) per tyrosinase (U/ml) per min; for Tyrosinase Kinetics NADH (rate of NADH oxidation): nM of NADH per compound (μM) per tyrosinase (U/ml) per min
[6] = tested on: melanocytic SK-MEL-28 melanoma cells; experiment: Reactive oxygen species; format: cell-based, human
[7] = tested on: amelanotic C32 melanoma cells; experiment: Intracellular GSH measurement, C32; format: cell-based, human
[8] = tested on: B16-F0 melanoma cells; experiment: MTT cell viability, B16-F0; format: cell-based, murine; conditions: for IC50: read-out: IC50 (48 h) B16-F0
[9] = clinical trials terminated; cited from earlier work
[10] = tested on: tyrosinase shRNA transfected SK-MEL-28 cells; experiment: Drug sensitivity assay using tyrosinase shRNA transfected cells; format: cell-based, human
[11] = tested on: SK-MEL-5 cells; experiment: MTT cell viability, SK-MEL-5; format: cell-based, human; conditions: 75 μM
[12] = tested on: SK-MEL-28 melanoma cells; experiment: Cell cycle analyses by flow cytometry; format: cell-based, human; conditions: 48 h
[13] = tested on: amelanotic C32 cells; experiment: MTT cell viability, C32; format: cell-based, human; conditions: 75 μM
[14] = MTT cell viability, SW-620; format: cell-based; conditions: human, SW-620 colorectal adenocarcinoma cells
[15] = MTT cell viability, Saos-2; format: cell-based; conditions: human, Saos-2 osteosarcoma cells
[16] = tested on: amelanotic SK-MEL-24 cells; experiment: MTT cell viability, SK-MEL-24; format: cell-based; conditions: 75 μM
[17] = MTT cell viability, PC-3; format: cell-based; conditions: human, PC-3 prostate cells
[18] = MTT cell viability, BJ; format: cell-based; conditions: human, BJ skin fibroblast cells
[19] = tested on: B16-F10 melanoma cells; experiment: MTT cell viability, B16-F10; format: cell-based, murine; conditions: 75 μM
[20] = tested on: MeWo cells; experiment: MTT cell viability, MeWo; format: cell-based, human; conditions: 75 μM
[21] = 0.75 mM (750 μM), listed as C00002
[22] = Homo sapiens, SK-MEL-28, 48 h, read-out: IC50 (48 h) SK-MEL-28
[23] = read-out: IC50 (48 h) SK-MEL-28, 48 h, MTT

Molecule: CCOC(=O)c1ccc(OC)cc1 [E4MB, ethyl 4-methoxybenzoate]
- IC50 ([1]; Homo sapiens, SK-MEL-28, 48 h, read-out: IC50 (48 h) SK-MEL-28 cells): 750 µM
- fold decrease in toxicity when compared to 4-HEB ([1]; from IC50 (48 h), SK-MEL-28): 10 fold
- Fold ROS formation (40 min) at IC50 ([2]; 750 μM, C32): 4 Fold
- ROS formation ([2]; 750 μM-5 mM, C32): negligible
- % GSH depletion (2 h) Tyrosinase/O2 ([3]; listed as C00002): 5±3%
- Intracellular GSH (ICG) depletion (2 h) ([4]; 0.75 mM (750 μM)): 10%
- Intracellular GSH (ICG) depletion (2 h) [4, 21]: 10%
- Intracellular GSH depletion (2 h) ([4]; 1 mM): 13%
- Intracellular GSH depletion (2 h) ([4]; 1.5 mM): 15%
- Tyrosinase Kinetics AA (rate of AA oxidation) [5]: 8 nM
- Tyrosinase Kinetics AA (rate of AA oxidation) ([5]; listed as C00002): 8 nM ^**
- Tyrosinase Kinetics NADH (rate of NADH oxidation) [5]: 50 nM
- Tyrosinase Kinetics NADH (rate of NADH oxidation) ([5]; listed as C00002): 50 nM ^**
- Fold ROS formation (40 min) at IC50 ([6]; 750 μM, SK-MEL-28): 9 Fold
- ROS formation ([6]; 750 μM-5 mM, SK-MEL-28, in comparison to 4-HEB): significantly lower
- Intracellular GSH (ICG) depletion (2 h) ([7]; 0.75 mM (750 μM)): 6%
- Intracellular GSH (ICG) depletion (2 h) [7, 21]: 6%
- Intracellular GSH depletion (2 h) ([7]; 1 mM): 7%
- Intracellular GSH depletion (2 h) ([7]; 1.5 mM): 10%

- IC50 [1, 22]: 8000 µM
- IC50 ([8]; Mus musculus, B16F0, 48 h): 3000 µM
Molecule: CC(=O)c1ccc(O)cc1 [4-hydroxyacetophenone]

- IC50 [1, 22]: 2100 µM
- IC50 ([8]; Mus musculus, B16F0, 48 h): 1900 µM
Molecule: CCOC(=O)c1cccc(O)c1 [Ethyl 3-hydroxybenzoate, ethyl 3-hydroxybenzoate]

Molecule: CCOC(=O)c1ccccc1 [Ethyl benzoate, ethyl benzoate, reference compound]
- IC50 [1, 22]: 7000 µM
- % GSH depletion (2 h) Tyrosinase/O2 [3]: 26±3%
- IC50 ([8]; Mus musculus, B16F0, 48 h): > 10000 µM

- IC50 [1, 22]: 11200 µM
- % GSH depletion (2 h) Tyrosinase/O2 [3]: 30±5%
- IC50 ([8]; Mus musculus, B16F0, 48 h): 4200 µM
Molecule: O=C(O)c1ccc(O)cc1 [4-hydroxybenzoic acid]

Molecule: Cc1ccccc1O [2-hydroxytoluene]
- IC50 [1, 22]: 3200 µM
- IC50 ([8]; Mus musculus, B16F0, 48 h): 3200 µM

- IC50 [1, 22]: 50 µM
- % GSH depletion Tyrosinase/O2 ([3]; measurement conducted at 30 min): 95±3 %
- IC50 ([8]; Mus musculus, B16F0, 48 h): 60 µM
Molecule: COc1ccc(O)cc1 [4-hydroxyanisole]
- liver toxicity in clinical trials [9]: serious liver toxicity
- cell toxicity when tyrosinase was silenced by shRNA plasmid ([10]; 4-HA 50 μM): significantly less cell toxicity

- IC50 [1, 22]: 3400 µM
- % GSH depletion (2 h) Tyrosinase/O2 [3]: 24±3%
- IC50 ([8]; Mus musculus, B16F0, 48 h): 43 µM
Molecule: COc1cccc(O)c1 [3-hydroxyanisole]

- IC50 [1, 22]: 5000 µM
- % GSH depletion (2 h) Tyrosinase/O2 [3]: 29±3%
- IC50 ([8]; Mus musculus, B16F0, 48 h): 4600 µM
Molecule: OCc1cccc(O)c1 [3-hydroxybenzyl alcohol]

- IC50 [1, 22]: 5000 µM
- % GSH depletion (2 h) Tyrosinase/O2 [3]: 0%
- IC50 ([8]; Mus musculus, B16F0, 48 h): 5200 µM
Molecule: O=C(O)c1ccccc1O [2-hydroxybenzoic acid]

- IC50 [1, 22]: 1500 µM
- % GSH depletion (2 h) Tyrosinase/O2 [3]: 0%
- IC50 ([8]; Mus musculus, B16F0, 48 h): 1100 µM
Molecule: OCc1ccccc1O [2-hydroxybenzyl alcohol]

- IC50 [1, 22]: > 10000 µM
- % GSH depletion (2 h) Tyrosinase/O2 [3]: 44±3%
- IC50 ([8]; Mus musculus, B16F0, 48 h): > 12000 µM
Molecule: CC(=O)c1ccccc1 [Acetophenone, acetophenone, reference compound]

- IC50 [1, 22]: > 12000 µM
- % GSH depletion (2 h) Tyrosinase/O2 [3]: 21±3%
- IC50 ([8]; Mus musculus, B16F0, 48 h): > 5000 µM
Molecule: COc1ccccc1 [Anisole, anisole, reference compound]

- IC50 [1, 22]: 75 µM
- Fold ROS formation (40 min) at IC50 ([2]; 75 μM, C32): 6 Fold
- % GSH depletion (2 h) Tyrosinase/O2 [3]: 24±4%
- % GSH depletion (2 h) Tyrosinase/O2 ([3]; listed as 4-HEB): 24%
- % GSH depletion (2 h) Tyrosinase/O2 ([3]; listed as C00001): 24±4%
- IC50 ([8]; Mus musculus, B16F0, 48 h): 190 µM
- Tyrosinase Kinetics AA (rate of AA oxidation) ([5]; listed as C00001): 143 nM ^*
- Tyrosinase Kinetics NADH (rate of NADH oxidation) ([5]; listed as C00001): 389 nM ^*
- Fold ROS formation (40 min) at IC50 ([6]; 75 μM, SK-MEL-28): 24 Fold
Molecule: CCOC(=O)c1ccc(O)cc1 [Ethyl 4-hydroxybenzoate, ethyl 4-hydroxybenzoate]
- anti-proliferative effect ([1]; 75 μM, SK-MEL-28): 52±4%
- anti-proliferative effect [11]: 57±5%
- ROS formation ([2]; 75-1500 μM, C32, compared with SK-MEL-28): significantly less
- Apoptosis (Sub G0/G1) ([12]; 75 μM): 2.9±0.3 %
- G1 ([12]; 75 μM): 74.7±0.8%
- G2/M ([12]; 75 μM): 9.9±0.1%
- S ([12]; 75 μM): 12.4±0.7%
- Apoptosis (Sub G0/G1) ([12]; 150 μM): 3.1±0.2 %
- G1 ([12]; 150 μM): 72.1±0.7%
- G2/M ([12]; 150 μM): 10.6±0.9%
- S ([12]; 150 μM): 13.2±1.2%
- Apoptosis (Sub G0/G1) ([12]; 250 μM): 5.0±0.9 %
- G1 ([12]; 250 μM): 63.4±1.8 %
- G2/M ([12]; 250 μM): 10.7±0.7%
- S ([12]; 250 μM): 20.1±2.6 %
- Apoptosis (Sub G0/G1) ([12]; 500 μM): 6.2±0.8 %
- G1 ([12]; 500 μM): 59.8±1.6 %
- G2/M ([12]; 500 μM): 10.9±0.4%
- S ([12]; 500 μM): 22.1±0.9 %
- anti-proliferative effect ([8]; 75 μM, B16-F0): 62±11%
- anti-proliferative effect [13]: 28±4%
- Intracellular GSH (ICG) depletion (2 h) ([4]; 75 μM, listed as C00001): 37%
- viability at 75 µM [14]: 89 ± 4%
- viability at 75 µM [15]: 86 ± 1%
- ROS formation ([6]; 75-1500 μM, various time points, SK-MEL-28): dose and time dependent increase
- anti-proliferative effect [16]: 24±3%
- viability at 75 µM [17]: 85 ± 3%
- toxicity prevented by transfection with tyrosinase shRNA clone 3 ([10]; 75 μM, 48 h, shRNA3 curtailed tyrosinase expression by 50%): 24±7%
- viability at 75 µM [18]: 89 ± 7%
- anti-proliferative effect [19]: 60±8%
- anti-proliferative effect [20]: 55±8%
- Intracellular GSH (ICG) depletion (2 h) ([7]; 75 μM, listed as 4-HEB): 8%
- Intracellular GSH (ICG) depletion (2 h) ([7]; 75 μM, listed as C00001): 8%
- Intracellular GSH depletion (2 h) ([7]; 150 μM): 13%

Molecule: O=C(O)c1ccccc1 [Benzoic acid, benzoic acid, reference compound]
- IC50 [1, 22]: > 10000 µM
- % GSH depletion (2 h) Tyrosinase/O2 [3]: 12±2%
- IC50 ([8]; Mus musculus, B16F0, 48 h): 11000 µM

- IC50 [1, 22]: 2000 µM
Molecule: Cc1ccc(O)cc1 [4-hydroxytoluene]

Molecule: Cc1cccc(O)c1 [3-hydroxytoluene]
- IC50 [1, 22]: 2500 µM
- IC50 ([8]; Mus musculus, B16F0, 48 h): 2100 µM

- IC50 [1, 22]: 2000 µM
- IC50 ([8]; Mus musculus, B16F0, 48 h): 2200 µM
Molecule: OCc1ccc(O)cc1 [4-hydroxybenzyl alcohol]

- IC50 [1, 23]: 4000 µM
Molecule: 2-hydroxyacetophenone

- IC50 [1, 22]: 2000 µM
- % GSH depletion (2 h) Tyrosinase/O2 [3]: 22±2%
- IC50 ([8]; Mus musculus, B16F0, 48 h): 2600 µM
Molecule: CCOC(=O)c1ccccc1O [Ethyl 2-hydroxybenzoate, ethyl 2-hydroxybenzoate]

- IC50 [1, 22]: > 10000 µM
- % GSH depletion (2 h) Tyrosinase/O2 [3]: 0%
- IC50 ([8]; Mus musculus, B16F0, 48 h): 8000 µM
Molecule: OCc1ccccc1 [Benzyl alcohol, benzyl alcohol, reference compound]

- IC50 [1, 22]: 2200 µM
- % GSH depletion (2 h) Tyrosinase/O2 [3]: 25±2%
- IC50 ([8]; Mus musculus, B16F0, 48 h): 51 µM
Molecule: COc1ccccc1O [2-hydroxyanisole]

Molecule: Cc1ccccc1 [Toluene, toluene, reference compound]
- IC50 [1, 22]: 10000 µM
- IC50 ([8]; Mus musculus, B16F0, 48 h): > 10000 µM

- IC50 [1, 22]: 2300 µM
- IC50 ([8]; Mus musculus, B16F0, 48 h): 1800 µM
Molecule: O=C(O)c1cccc(O)c1 [3-hydroxybenzoic acid]

- IC50 [1, 23]: 2000 µM
- IC50 ([8]; 48 h, MTT): 1400 µM
Molecule: CC(=O)c1cccc(O)c1 [3-hydroxyacetophenone]
